Measured values from US20230024096A1, “BIFUNCTIONAL COMPOUNDS FOR THE TREATMENT OF CANCER” (Hoffmann-La Roche Inc., priority 2019, published 2023).

Biological target: T1, SMARCA2 (Homo sapiens, UniProt P51531)
T1 construct: endogenous in cells; host or cells: HT1080 (CRISPR HiBiT knock-in clone, generated in house)
Experiment: SMARCA2 HiBiT degradation assay (cellular)
Assay type: cell-based
Conditions: table head names A549; for DC50: 6 h incubation, HiBiT-tagged SMARCA2, luminescence read-out, read-out: HiBit A549 SMARCA2 IP (nM) 6 h; for Emax: A549, 6 h incubation, Emax = amount of residual protein remaining in the cell following compound treatment

T1 sequence (P51531 whole entry): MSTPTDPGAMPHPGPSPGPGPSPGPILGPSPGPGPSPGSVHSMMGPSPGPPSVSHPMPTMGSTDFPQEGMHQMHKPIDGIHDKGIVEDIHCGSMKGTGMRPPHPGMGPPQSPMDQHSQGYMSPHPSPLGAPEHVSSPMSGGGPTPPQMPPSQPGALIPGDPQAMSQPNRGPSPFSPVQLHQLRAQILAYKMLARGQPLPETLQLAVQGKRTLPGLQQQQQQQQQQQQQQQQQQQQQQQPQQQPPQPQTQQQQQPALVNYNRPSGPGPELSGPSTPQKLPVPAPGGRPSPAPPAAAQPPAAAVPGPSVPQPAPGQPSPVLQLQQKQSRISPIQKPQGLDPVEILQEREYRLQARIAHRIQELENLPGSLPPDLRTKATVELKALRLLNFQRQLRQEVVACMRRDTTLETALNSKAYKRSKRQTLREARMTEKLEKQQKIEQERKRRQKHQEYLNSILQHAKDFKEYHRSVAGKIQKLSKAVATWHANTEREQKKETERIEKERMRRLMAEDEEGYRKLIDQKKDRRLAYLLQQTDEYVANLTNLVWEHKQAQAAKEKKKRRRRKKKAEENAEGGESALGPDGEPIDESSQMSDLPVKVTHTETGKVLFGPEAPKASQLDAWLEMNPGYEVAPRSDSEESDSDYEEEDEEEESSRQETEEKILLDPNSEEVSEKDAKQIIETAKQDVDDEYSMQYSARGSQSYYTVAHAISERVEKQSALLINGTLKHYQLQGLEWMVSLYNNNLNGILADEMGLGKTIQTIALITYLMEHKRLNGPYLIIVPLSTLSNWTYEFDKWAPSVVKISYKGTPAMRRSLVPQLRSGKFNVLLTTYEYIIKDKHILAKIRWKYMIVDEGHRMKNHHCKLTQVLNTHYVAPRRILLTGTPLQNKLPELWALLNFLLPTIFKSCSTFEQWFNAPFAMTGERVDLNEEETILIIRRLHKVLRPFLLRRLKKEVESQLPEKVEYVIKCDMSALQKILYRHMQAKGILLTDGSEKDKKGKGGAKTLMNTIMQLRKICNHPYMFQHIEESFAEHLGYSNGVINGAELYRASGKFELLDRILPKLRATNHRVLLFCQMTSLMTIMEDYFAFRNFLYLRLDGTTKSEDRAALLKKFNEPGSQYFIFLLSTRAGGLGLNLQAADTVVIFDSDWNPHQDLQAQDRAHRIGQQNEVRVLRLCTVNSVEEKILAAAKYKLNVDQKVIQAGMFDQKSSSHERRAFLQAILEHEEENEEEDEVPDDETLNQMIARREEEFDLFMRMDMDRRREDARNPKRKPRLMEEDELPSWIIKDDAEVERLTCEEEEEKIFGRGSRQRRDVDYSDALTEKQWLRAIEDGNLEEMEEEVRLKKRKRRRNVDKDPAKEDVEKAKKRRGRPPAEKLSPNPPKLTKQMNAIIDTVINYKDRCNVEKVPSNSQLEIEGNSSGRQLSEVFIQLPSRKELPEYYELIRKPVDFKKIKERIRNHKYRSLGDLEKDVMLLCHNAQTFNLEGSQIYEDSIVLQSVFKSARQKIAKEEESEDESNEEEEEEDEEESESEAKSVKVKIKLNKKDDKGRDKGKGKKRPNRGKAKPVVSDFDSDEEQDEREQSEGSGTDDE

Row | SMILES | DC50 [nM] | Emax [%]
1 | Nc1nnc(-c2ccccc2O)cc1OC1CCCN(c2ccc(OCCN3CCN(C(=O)CCCCCCCCn4cc(CNc5cccc6c5C(=O)N(C5CCC(=O)NC5=O)C6=O)nn4)CC3)cc2)C1 (centres unmarked) [Example 27, 4-[[1-[9-[4-[2-[4-[3-[3-amino-6-(2-hydroxyphenyl)pyridazin-4-yl]oxy-1-piperidyl]phenoxy]ethyl]piperazin-1-yl]-9-oxo-nonyl]triazol-4-yl]methylamino]-2-(2,6-dioxo-3-piperidyl)isoindoline-1,3-dione] | 333 | 57
2 | Nc1nnc(-c2ccccc2O)cc1N1CC2CCC(C1)N2c1cccc(OCCN2CCN(CCC3CCN(c4ccc5c(c4)C(=O)N(C4CCC(=O)NC4=O)C5=O)CC3)CC2)c1 (racemic) [Example 34, rac-5-[4-[2-[4-[2-[3-[3-[3-amino-6-(2-hydroxyphenyl)pyridazin-4-yl]-3,8-diazabicyclo[3.2.1]octan-8-yl]phenoxy]ethyl]piperazin-1-yl]ethyl]-1-piperidyl]-2-(2,6-dioxo-3-piperidyl)isoindoline-1,3-dione] | 26 | 24
3 | Nc1nnc(-c2ccccc2O)cc1N1CCC(C(=O)N2CCC(C(=O)N3CCC(c4ccc(C5CCC(=O)NC5=O)cc4)CC3)CC2)(c2ccccc2)CC1 (centres unmarked) [Example 175, 3-(4-(1-(1-(1-(3-amino-6-(2-hydroxyphenyl)pyridazin-4-yl)-4-phenylpiperidine-4-carbonyl)piperidine-4-carbonyl)piperidin-4-yl)phenyl)piperidine-2,6-dione] | 42 | 47
4 | Nc1nnc(-c2ccccc2O)cc1N1CC(Oc2cccc(CN3CCN(C(=O)C4CCN(c5ccc6c(c5)C(=O)N(C5CCC(=O)NC5=O)C6=O)CC4)CC3)c2)C1 (racemic) [Example 155, rac-5-[4-[4-[[3-[1-[3-amino-6-(2-hydroxyphenyl)pyridazin-4-yl]azetidin-3-yl]oxyphenyl]methyl]piperazine-1-carbonyl]-1-piperidyl]-2-(2,6-dioxo-3-piperidyl)isoindoline-1,3-dione] | 5 | 26
5 | Nc1nnc(-c2ccccc2O)cc1N1CC2CCC(C1)N2c1cccc(OCCN2CCN(C(=O)N3C[C@@H]4CN(c5ccc6c(c5)C(=O)N(C5CCC(=O)NC5=O)C6=O)C[C@@H]4C3)CC2)c1 (relative stereo) [Example 157, rac-2-(2,6-dioxo-3-piperidyl)-5-[rel-(3aS,6aR)-5-[4-[2-[3-[3-[3-amino-6-(2-hydroxyphenyl)pyridazin-4-yl]-3,8-diazabicyclo[3.2.1]octan-8-yl]phenoxy]ethyl]piperazine-1-carbonyl]-1,3,3a,4,6,6a-hexahydropyrrolo[3,4-c]pyrrol-2-yl]isoindoline-1,3-dione] | 108 | 68
6 | Nc1nnc(-c2ccccc2O)cc1N1CC2CCC(C1)N2c1cccc(OC2CCC(CC(=O)N3CC4(C3)CN(C(=O)C3CCN(c5ccc6c(c5)C(=O)N(C5CCC(=O)NC5=O)C6=O)CC3)C4)CC2)c1 (racemic) [Example 31, rac-5-[4-[6-[2-[4-[3-[3-[3-amino-6-(2-hydroxyphenyl)pyridazin-4-yl]-3,8-diazabicyclo[3.2.1]octan-8-yl]phenoxy]cyclohexyl]acetyl]-2,6-diazaspiro[3.3]heptane-2-carbonyl]-1-piperidyl]-2-(2,6-dioxo-3-piperidyl)isoindoline-1,3-dione] | 383 | 55
7 | Nc1nnc(-c2ccccc2O)cc1N1CC(Oc2cccc(N3CCN(C(=O)CCC4CCN(c5ccc6c(c5)C(=O)N(C5CCC(=O)NC5=O)C6=O)CC4)CC3)c2)C1 (racemic) [Example 153, rac-5-[4-[3-[4-[3-[1-[3-amino-6-(2-hydroxyphenyl)pyridazin-4-yl]azetidin-3-yl]oxyphenyl]piperazin-1-yl]-3-oxo-propyl]-1-piperidyl]-2-(2,6-dioxo-3-piperidyl)isoindoline-1,3-dione] | 19 | 21
8 | Nc1nnc(-c2ccccc2O)cc1N1CC2CCC(C1)N2c1cccc(CN2CCN(C(=O)CCC3CCN(c4ccc5c(c4)C(=O)N(C4CCC(=O)NC4=O)C5=O)CC3)CC2)c1 (racemic) [Example 47, rac-5-[4-[3-[4-[[3-[3-[3-Amino-6-(2-hydroxyphenyl)pyridazin-4-yl]-3,8-diazabicyclo[3.2.1]octan-8-yl]phenyl]methyl]piperazin-1-yl]-3-oxo-propyl]-1-piperidyl]-2-(2,6-dioxo-3-piperidyl)isoindoline-1,3-dione] | 17 | 42
9 | Nc1nnc(-c2ccccc2O)cc1N1CCC(C(=O)N2CC3(CCN(C(=O)CC4CCN(c5ccc6c(c5)C(=O)N(C5CCC(=O)NC5=O)C6=O)CC4)CC3)C2)(c2ccccc2)CC1 (centres unmarked) [Example 164, 5-(4-(2-(2-(1-(3-amino-6-(2-hydroxyphenyl)pyridazin-4-yl)-4-phenylpiperidine-4-carbonyl)-2,7-diazaspiro[3.5]nonan-7-yl)-2-oxoethyl)piperidin-1-yl)-2-(2,6-dioxopiperidin-3-yl)isoindoline-1,3-dione] | 42 | 50
10 | Nc1nnc(-c2ccccc2O)cc1N1CC2CCC(C1)N2c1cccc(OCCN2CCN(C(=O)CNC(=O)C3CCN(c4ccc5c(c4)C(=O)N(C4CCC(=O)NC4=O)C5=O)CC3)CC2)c1 (racemic) [Example 141, rac-N-[2-[4-[2-[3-[3-[3-amino-6-(2-hydroxyphenyl)pyridazin-4-yl]-3,8-diazabicyclo[3.2.1]octan-8-yl]phenoxy]ethyl]piperazin-1-yl]-2-oxo-ethyl]-1-[2-(2,6-dioxo-3-piperidyl)-1,3-dioxo-isoindolin-5-yl]piperidine-4-carboxamide] | 9 | 19
11 | CC(Nc1cccc2c1C(=O)N(C1CCC(=O)NC1=O)C2=O)c1cn(CCCCCCCCCN2CCN(c3ccc(N4CCCC(Oc5cc(-c6ccccc6O)nnc5N)C4)cc3)CC2)nn1 (centres unmarked) [Example 89, 4-[1-[1-[9-[4-[4-[3-[3-amino-6-(2-hydroxyphenyl)pyridazin-4-yl]oxy-1-piperidyl]phenyl]piperazin-1-yl]nonyl]triazol-4-yl]ethylamino]-2-(2,6-dioxo-3-piperidyl)isoindoline-1,3-dione] | 55 | 30
12 | CC(Oc1cccc2c1C(=O)N(C1CCC(=O)NC1=O)C2=O)c1cn(CCCCCCCCCN2CCN(c3ccc(N4CCC[C@H](Oc5cc(-c6ccccc6O)nnc5N)C4)cc3)CC2)nn1 (mixture of isomers) [Example 126, 2-(2,6-dioxo-3-piperidyl)-4-[1-[1-[9-[4-[4-[rac-(3S)-3-[3-amino-6-(2-hydroxyphenyl)pyridazin-4-yl]oxy-1-piperidyl]phenyl]piperazin-1-yl]nonyl]triazol-4-yl]ethoxy]isoindoline-1,3-dione] | 73 | 26
13 | Nc1nnc(-c2ccccc2O)cc1N1CCC(C(=O)N2CC3(CCN(C(=O)COc4ccc5c(c4)C(=O)N(C4CCC(=O)NC4=O)C5=O)C3)C2)(c2ccccc2)CC1 (centres unmarked) [Example 189, 5-(2-(2-(1-(3-amino-6-(2-hydroxyphenyl)pyridazin-4-yl)-4-phenylpiperidine-4-carbonyl)-2,6-diazaspiro[3.4]octan-6-yl)-2-oxoethoxy)-2-(2,6-dioxopiperidin-3-yl)isoindoline-1,3-dione] | 1370 | 62
